Experimental data from US20230416275A1, “MODULATORS OF CYSTIC FIBROSIS TRANSMEMBRANE CONDUCTANCE REGULATOR” (VERTEX PHARMACEUTICALS INCORPORATED, priority 2020, published 2023).

Biological target: T1, F508del in NIH 3T3 cells (Homo sapiens, UniProt P13569, DEL508-508)
T1 construct: expressed in transfected cells
Test: 3T3 assay: membrane potential optical assay for F508del correction
Format: cell-based, mouse
Settings: for Emax: NIH3T3, F508del NIH 3T3 cells, efficacy compared to lumacaftor in combination with acutely added 300 nM Ivacaftor, read-out: 3T3 Max Activity (%); for EC50: F508del NIH 3T3 cells, compound incubation 18-24 hours at 37° C., forskolin activation, read-out: 3T3 EC50
Description: a. Membrane Potential Optical Methods for Assaying F508del Modulation Properties of Compounds
The assay utilizes fluorescent voltage sensing dyes to measure changes in membrane potential using a fluorescent plate reader (e.g., FLIPR III, Molecular Devices, Inc.) as a readout for increase in functional F508del in NIH 3T3 cells. The driving force for the response is the creation of a chloride ion gradient in conjunction with channel activation by a single liquid addition step after the cells have previously been treated with compounds and subsequently loaded with a voltage sensing dye.
b. Identification of Corrector Compounds
To identify correctors of F508del, a single-addition HTS assay format was developed. This HTS assay utilizes fluorescent voltage sensing dyes to measure changes in membrane potential on the FLIPR III as a measurement for increase in gating (conductance) of F508del in F508del NIH 3T3 cells. The F508del NIH 3T3 cell cultures were incubated with the corrector compounds at a range of concentrations for 18-24 hours at 37° C., and subsequently loaded with a redistribution dye. The driving force for the response is a Cl^− ion gradient in conjunction with channel activation with forskolin in a single liquid addition step using a fluorescent plate reader such as FLIPR III.
Bath Solution #1: (in mM) NaCl 160, KCl 4.5, CaCl2 2, MgCl2 1, HEPES 10, pH 7.4 with NaOH.
Chloride-free bath solution: Chloride salts in Bath Solution #1 (above) are substituted with gluconate salts.
NIH3T3 mouse fibroblasts stably expressing F508del are used for optical measurements of membrane potential. The cells are maintained at 37° C. in 5% CO2 and 90% humidity in Dulbecco's modified Eagle's medium supplemented with 2 mM glutamine, 10% fetal bovine serum, 1×NEAA, b-ME, 1× pen/strep, and 25 mM HEPES in 175 cm^2 culture flasks. For all optical assays, the cells were seeded at ˜20,000/well in 384-well Matrigel-coated plates. For the correction assays, the cells are cultured at 37° C. with and without compounds for 16-24 hours.

T1 sequence (P13569 with tags, fused parts or gaps DEL508-508): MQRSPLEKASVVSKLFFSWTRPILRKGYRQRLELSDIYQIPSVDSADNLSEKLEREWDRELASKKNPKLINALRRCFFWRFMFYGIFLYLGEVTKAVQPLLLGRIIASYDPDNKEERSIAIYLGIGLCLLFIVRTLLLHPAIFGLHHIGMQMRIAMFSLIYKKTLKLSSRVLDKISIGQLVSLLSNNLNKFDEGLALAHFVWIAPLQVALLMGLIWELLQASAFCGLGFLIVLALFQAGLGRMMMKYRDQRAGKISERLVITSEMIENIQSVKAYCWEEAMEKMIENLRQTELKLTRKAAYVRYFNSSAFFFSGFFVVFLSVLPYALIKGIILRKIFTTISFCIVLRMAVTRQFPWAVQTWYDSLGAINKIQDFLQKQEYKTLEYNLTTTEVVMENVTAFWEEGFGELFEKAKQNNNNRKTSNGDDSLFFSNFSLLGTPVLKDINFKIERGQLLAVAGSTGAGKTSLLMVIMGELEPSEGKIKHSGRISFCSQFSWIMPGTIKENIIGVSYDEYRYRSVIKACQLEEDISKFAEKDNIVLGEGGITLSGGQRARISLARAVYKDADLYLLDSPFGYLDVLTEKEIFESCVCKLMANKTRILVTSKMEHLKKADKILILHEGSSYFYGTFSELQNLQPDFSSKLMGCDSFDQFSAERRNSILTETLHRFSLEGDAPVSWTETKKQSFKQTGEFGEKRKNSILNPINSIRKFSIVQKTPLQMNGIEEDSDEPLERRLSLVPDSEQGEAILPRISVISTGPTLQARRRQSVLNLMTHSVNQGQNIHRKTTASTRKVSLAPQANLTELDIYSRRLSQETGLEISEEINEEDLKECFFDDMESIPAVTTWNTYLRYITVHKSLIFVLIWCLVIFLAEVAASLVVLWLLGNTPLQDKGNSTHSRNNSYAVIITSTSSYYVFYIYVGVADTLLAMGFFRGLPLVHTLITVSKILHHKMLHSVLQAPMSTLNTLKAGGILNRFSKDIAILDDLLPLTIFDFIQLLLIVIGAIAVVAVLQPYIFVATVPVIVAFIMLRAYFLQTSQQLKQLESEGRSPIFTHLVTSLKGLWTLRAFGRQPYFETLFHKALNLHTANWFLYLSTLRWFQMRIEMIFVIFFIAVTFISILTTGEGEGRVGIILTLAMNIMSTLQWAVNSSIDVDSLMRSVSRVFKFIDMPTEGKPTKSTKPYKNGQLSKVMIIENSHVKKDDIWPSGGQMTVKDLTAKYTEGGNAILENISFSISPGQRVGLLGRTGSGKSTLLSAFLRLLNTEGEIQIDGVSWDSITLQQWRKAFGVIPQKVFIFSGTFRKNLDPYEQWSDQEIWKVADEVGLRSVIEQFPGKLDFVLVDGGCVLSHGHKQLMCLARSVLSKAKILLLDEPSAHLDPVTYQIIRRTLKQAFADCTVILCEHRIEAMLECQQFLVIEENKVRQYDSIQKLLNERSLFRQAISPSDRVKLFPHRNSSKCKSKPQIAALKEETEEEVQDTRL

Cc1ccccc1-c1cc2nc(n1)NS(=O)(=O)c1cccc(c1)N(C)C(=O)c1ccc(cc1)O2 [Compound 113]
Emax: < 30%

Cc1cccc(C)c1-c1cc2nc(n1)NS(=O)(=O)c1cccc(c1)NC(=O)[C@H]1C[C@@H](CN(C(=O)OC(C)(C)C)C1)O2 (single isomer, unassigned) [Compound 4]
EC50: < 1 µM
Emax: > 60%

Cc1cccc(C)c1-c1cc2nc(n1)NS(=O)(=O)c1cccc(c1)NC(=O)c1cc(ccc1N1CCC(O)CC1)O2 [Compound 100]
EC50: 3 to 30 µM
Emax: > 60%

Cc1cccc(C)c1-c1cc2nc(n1)NS(=O)(=O)c1cccc(c1)NC(=O)c1cccc(c1C)O2 (racemic) [Compound 59, 5-(2,6-Dimethylphenyl)-21-methyl-9,9-dioxo-2-oxa-9λ^6-thia-6,8,15,23-tetraazatetracyclo[15.3.1.13,7.110,14]tricosa-1(20),3,5,7(23),10(22),11,13,17(21),18-nonaen-16-one]
EC50: < 1 µM
Emax: > 60%

O=C1Nc2cccc(c2)S(=O)(=O)Nc2nc(cc(-c3ccccc3O)n2)Oc2cccc1c2 [Compound 84]
EC50: 3 to 30 µM
Emax: > 60%

Cc1cccc(C)c1-c1cc2nc(n1)NS(=O)(=O)c1cccc(c1)NC(=O)c1cc(ccc1NC1CCCCC1N)O2 (stereo not shown) [Compound 103]
EC50: 1 to 3 µM
Emax: > 60%

Cc1cccc(C)c1-c1cc2nc(n1)NS(=O)(=O)c1cccc(c1)NC(=O)c1cc(ccc1NC1CCCC(N)C1)O2 (stereo not shown) [Compound 101]
EC50: 3 to 30 µM
Emax: > 60%

Cc1ccccc1-c1cc2nc(n1)NS(=O)(=O)c1cccc(c1)N(C)C(=O)c1cccc(c1)O2 [Compound 115]
EC50: 3 to 30 µM
Emax: > 60%

Cc1cccc(C)c1-c1cc2nc(n1)NS(=O)(=O)c1cccc(c1)NC(=O)c1cc(ccc1NCCN)O2 [Compound 105]
EC50: 1 to 3 µM
Emax: > 60%

CNC1CCCCC1N(C)c1ccc2cc1C(=O)Nc1cccc(c1)S(=O)(=O)Nc1nc(cc(-c3c(C)cccc3C)n1)O2 (stereo not shown) [Compound 102]
Emax: 30 to 60%

Cc1cccc(C)c1-c1cc2nc(n1)NS(=O)(=O)c1cccc(c1)NC(=O)C1CC(CN1C(=O)OC(C)(C)C)O2 (stereo not shown) [Compound 98]
EC50: 1 to 3 µM
Emax: > 60%

Cc1cccc(C)c1-c1cc2nc(n1)NS(=O)(=O)c1cccc(c1)NC(=O)c1cc(ccc1N1CCNCC1)O2 [Compound 106]
EC50: 3 to 30 µM
Emax: > 60%

CC1(C)CCCCC1c1cc2nc(n1)NS(=O)(=O)c1cccc(c1)NC(=O)c1cccc(c1)O2 (stereo not shown) [Compound 75, 5-(2,2-Dimethylcyclohexyl)-9,9-dioxo-2-oxa-9λ^6-thia-6,8,15,23-tetraazatetracyclo[15.3.1.13,7.110,14]tricosa-1(20),3,5,7(23),10(22),11,13,17(21),18-nonaen-16-one]
EC50: < 1 µM
Emax: > 60%

Cc1cccc(C)c1-c1cc2nc(n1)NS(=O)(=O)c1cccc(c1)NC(=O)C(NC(=O)OC(C)(C)C)CCO2 (stereo not shown) [Compound 95]
EC50: < 1 µM
Emax: > 60%

Cc1cccc(C)c1-c1cc2nc(n1)NS(=O)(=O)c1cccc(c1)NC(=O)CCCCCO2 [Compound 97]
EC50: < 1 µM
Emax: > 60%

Cc1cccc(C)c1-c1cc2nc(n1)NS(=O)(=O)c1cccc(c1)NC(=O)c1cccc(c1Cl)O2 [Compound 116]
EC50: < 1 µM
Emax: > 60%

COc1ccccc1-c1cc2nc(n1)NS(=O)(=O)c1cccc(c1)NC(=O)c1cccc(c1)O2 [Compound 87]
EC50: 1 to 3 µM
Emax: > 60%

O=C1Nc2cccc(c2)S(=O)(=O)Nc2nc(cc(-c3ccco3)n2)Oc2cccc1c2 [Compound 86]
EC50: 3 to 30 µM
Emax: > 60%

Cc1nn(C)c(C)c1-c1cc2nc(n1)NS(=O)(=O)c1cccc(c1)NC(=O)c1cccc(c1)O2 [Compound 85]
Emax: < 30%

O=C1Nc2cccc(c2)S(=O)(=O)Nc2nc(cc(-c3ccccc3)n2)Oc2cccc1c2 [Compound 82]
EC50: 1 to 3 µM
Emax: > 60%

Cc1cccc(C)c1-c1cc2nc(n1)NS(=O)(=O)c1cccc(c1)NC(=O)c1cc(cc(N3CCNCC3)c1)O2 [Compound 99]
EC50: 3 to 30 µM
Emax: 30 to 60%

CNCCN(C)c1ccc2cc1C(=O)Nc1cccc(c1)S(=O)(=O)Nc1nc(cc(-c3c(C)cccc3C)n1)O2 [Compound 104]
EC50: 3 to 30 µM
Emax: 30 to 60%

Cc1cccc(C)c1-c1cc2nc(n1)NS(=O)(=O)c1cccc(c1)NC(=O)c1cccc(c1)CCO2 [Compound 94]
EC50: 1 to 3 µM
Emax: 30 to 60%

Nc1ccccc1-c1cc2nc(n1)NS(=O)(=O)c1cccc(c1)NC(=O)c1cccc(c1)O2 [Compound 83]
EC50: 3 to 30 µM
Emax: > 60%

Cc1cccc(C)c1-c1cc2nc(n1)NS(=O)(=O)c1cccc(c1)NC(=O)c1cc(ccc1N1CCCCC1)O2 [Compound 56, 5-(2,6-Dimethylphenyl)-9,9-dioxo-18-(1-piperidyl)-2-oxa-9λ^6-thia-6,8,15,23-tetraazatetracyclo[15.3.1.13,7.110,14]tricosa-1(21),3,5,7(23),10(22),11,13,17,19-nonaen-16-one]
EC50: < 1 µM
Emax: > 60%

Cc1cccc(C)c1-c1cc2nc(n1)NS(=O)(=O)c1cccc(c1)NC(=O)c1cccc(c1C)O2 (single isomer, unassigned) [Compound 60, (+)-5-(2,6-Dimethylphenyl)-21-methyl-9,9-dioxo-2-oxa-9λ^6-thia-6,8,15,23-tetraazatetracyclo[15.3.1.13,7.110,14]tricosa-1(20),3,5,7(23),10(22),11,13,17(21),18-nonaen-16-one]
EC50: < 1 µM
Emax: > 60%

Cc1cccc(C)c1-c1cc2nc(n1)NS(=O)(=O)c1cccc(c1)NC(=O)C(N)CCO2 (stereo not shown) [Compound 96]
EC50: 1 to 3 µM
Emax: > 60%

Cc1cccc(C)c1-c1cc2nc(n1)NS(=O)(=O)c1cccc(c1)NC(=O)c1cccc(c1C)O2 (single isomer, unassigned) [Compound 61, (−)-5-(2,6-dimethylphenyl)-21-methyl-9,9-dioxo-2-oxa-9λ^6-thia-6,8,15,23-tetraazatetracyclo[15.3.1.13,7.110,14]tricosa-1(20),3,5,7(23),10(22),11,13,17(21),18-nonaen-16-one]
EC50: < 1 µM
